Measured values published in patent US6177592A, “Compounds” (priority 1997, dated 2001).
Entries after “also recorded” stand apart in the source; their conditions may differ.

Assays:
[1] = system: HSP70; conditions: cited from earlier work
[2] = system: vesicular stomatitis virus protein; conditions: Rossi et al., J. Biol. Chem. 271, 32192 (1996); cited from earlier work
[3] = system: HL-60 cells; assay: MTT growth inhibition of HL-60; assay type: cell-based, human; conditions: for inhibition activity of the growth of cancer cells (in words): Example 5; for activity at 10 µM / activity at 20 µM / activity at 40 µM: read-out: degree of cell growth (ratio of absorbance at 590 nm of sample-added section to control)
Procedure: (§1) (2) To each of the wells of a 96-well microtiter plate was added 8, 40, 200 or 1000 μM aqueous solution of GM or 10 μl of water as a control. HL-60 (ATCC CCL-240) was suspended in an RPMI 1640 medium containing 10% of fetal calf serum to make the concentration 5×10^4 cells/ml and each 90 μl thereof was placed in each well of the above-mentioned microtiter plate and incubated at 37° C. for 48 hours in the presence of 5% carbon dioxide. Incubation was conducted for four hours more after addition of 10 μl of a solution (5 mg/ml) of 3-(4,5-dimethylthiazol-2-yl)-2,5-diphenyltetrzolium bromide (MTT; manufactured by Sigma) in a phosphate-buffered saline solution and the state of growth of the cells was observed under a microscope. Further, 100 μl of 2-propanol containing 0.04N hydrochloric acid was added followed by stirring and an absorbance at 590 nm was measured.
(3) To each well of the 96-well microtiter plate was added 100, 200 or 400 μM aqueous solution of GM or CM or 10 μl of water as a control and the inhibition activity of growth of HL-60 was measured by the same method as mentioned in Example 5-(2). The degree of cell growth was, however, expressed in terms of the ratio (%) of the absorbance at 590 nm of the sample-added section to that of the water-added section (the control).
(§2) (5) To each well of the 96-well microtiter plate was added 4.12, 12.3, 37.0, 111, 333 or 1000 μM aqueous solution of GD or 10 μl of water as a control. HL-60 (ATCC CCL-240) was suspended in an RPMI 1640 medium containing 10% of fetal calf serum to make the concentration 5×10^4 cells/ml and each 90 μl thereof was placed in each well of the above-mentioned microtiter plate followed by incubating at 37° C. for 48 hours in the presence of 5% carbon dioxide gas. The incubation was conducted for four hours more after addition of 10 μl of 5 mg/ml solution of 3-(4,5-dimethylthiazol-2-yl)-2,5-diphenyltetrazolium bromide (MTT; manufactured by Sigma) in a phosphate-buffered saline solution and the state of growth of the cells was observed under a microscope. In the meanwhile, 100 μl of 2-propanol containing 0.04N HCl was added followed by well stirring and the absorbance at 590 nm was measured.
(6) Cyclopentenone and L-cysteine hydrochloride were dissolved in a phosphate buffered saline solution (pH 7.2) to make their concentrations 55 mM and 80 mM, respectively and made to react at 37° C. for 15 minutes at pH 7.2. Apart of the reaction solution was analyzed by a reversed phase HPLC using a column of TSK gel ODS-80Ts (4.6 mm×250 mm; manufactured by Tosoh)at the flow rate of 1 ml/minute using 0.1% aqueous solution of trifluoroacetic acid as a mobile phase whereupon no cyclopentenone was detected. This reaction solution was a solution containing 55 mM of CD.
Degree of cell growth was, however, expressed in terms of the ratio (%) of the absorbance at 590 nm of the section to which the sample was added to that of the control where water was added.

[4] = system: HL-60 cells; assay: Apoptosis in HL-60 cells (apoptic bodies, DNA fragmentation); assay type: cell-based, human; conditions: at each of the cell-growth-inhibiting concentrations
Procedure: (1) Each 0.5 ml of 0.2 mM CM, 0.8 mM CM or 1.6 mM CM was added to 4.5 ml of RPMI 1640 medium containing 10% of fetal calf serum and 2.5×10^5HL-60 cells (promyelocytic leukemia cell) (ATCC CCL-240) and incubated at 37° C. for 24 hours or 48 hours in the presence of 5% carbon dioxide gas and the numbers of viable cells were measured.
as §1
(4) HL-60 cells (ATCC CCL240) which were incubated at 37° C. in an RPMI 1640 medium (manufactured by Nissui) containing 10% of fetal calf serum (manufactured by Gibco) treated at 56° C. for 30 minutes were suspended in the above medium to make the concentration 2.5×10^5cells/4.5 ml. To this suspension was added 0.5 ml of 100 μM aqueous solution of GM (final concentration: 10 μM) followed by incubating at 37° C. in the presence of 5% carbon dioxide gas for 24 hours, 48 hours and 72 hours.
as §2

[5] = system: mouse leukemia P-388; assay: Mouse leukemia P-388 survival (macrobiotic effect) in DBA/2 mice; assay type: in vivo; conditions: 10 mg/kg/day i.p., five days
Procedure: GM was diluted with a physiological saline solution to a predetermined concentration and subjected to the following tests.
(2) Mouse leukemia P-388 (1.1×10^6 cells/mouse) was intraperitoneally injected to female DBA/2 mice (body weight: about 20 g) of seven weeks age. After that, GM, CM, GD or CD (10 mg/kg/day) was intraperitoneally injected for consecutive five clays. In the meanwhile, a physiological saline solution was intraperitoneally injected to the control group by the same manner. In the two group each consisting of eight mice, survived numbers, average survived days and macrobiotic rate of the mice were calculated.

[6] = system: Sarcoma-180; assay: Sarcoma-180/ICR mice macrobiotic effect; assay type: in vivo
[7] = system: IMC; assay: IMC/CDF1 mice macrobiotic effect; assay type: in vivo
[8] = system: EAC; assay: EAC/DDY mice macrobiotic effect; assay type: in vivo
[9] = system: Bacillus subtilis IFO 3021; assay: Antibacterial activity, viable cell numbers; assay type: cell-based; conditions: compared with GM
Procedure: Bacillus subtilis IFO 3021 was incubated (by mans of a seed culture) overnight in a sensitive bouillon medium (manufactured by Nissui). Absorbance at 600 nm was measured and viable cell numbers were calculated from the previously-prepared calibration curve showing the relation between the viable cell numbers and absorbance at 600 nm. The seed-cultured liquid was diluted with a fresh sensitive bouillon medium to make the concentration 1×10^6 cells/ml and each 180 μl thereof was placed in each well of the 96-well microtiter plate. Each 20 μl of aqueous solution of GM (4 mg/ml or 2 mg/ml) or water was added to each well followed by allowing to a stationary culture at 37° C. for one night (main incubation) In the meanwhile, a part of the seed culture liquid was diluted with sterilized water, spread onto a sensitive bouillon agar plate medium and incubated at 37° C. for one night and the colonies were counted to measure the precise viable cell numbers.
The cultured liquid in each of the wells was diluted with sterilized water, spread onto a sensitive bouillon agar plate medium and incubated at 37° C. for one night and the colonies were counter to measure the viable cell numbers.

[10] = system: HSP70 and HSP90; conditions: Amici et al., J. Virology 68, 6890 (1994); cited from earlier work
[11] = system: Sendai virus protein synthesis; conditions: Amici et al., J. Virology 68, 6890 (1994); cited from earlier work

Row | Compound | synthesis of HSP70 ([1]; Rossi et al., J. Biol. Chem. 271, 32192 (1996)) | concentration required for inducing the HSP70 [1] | synthesis of vesicular stomatitis virus protein [2] | inhibition activity of the growth of cancer cells (in words) [3] | activity at 10 µM ([3]; Homo sapiens, HL-60, 48 hours) [%] | activity at 20 µM ([3]; Homo sapiens, HL-60, 48 hours) [%] | activity at 40 µM ([3]; Homo sapiens, HL-60, 48 hours) [%] | apoptic bodies in the cells [4] | macrobiotic effect (average survived days) [5] | macrobiotic effect [6] | macrobiotic effect [7] | macrobiotic effect [8] | antibacterial activity (in words) [9] | IC100 ([3]; Homo sapiens, HL-60, 48 hours, MTT, final concentration, read-out: concentration at which growth of HL-60 cells was completely inhibited) [µM] | synthesis of HSP70 and HSP90 [10] | synthesis of virus protein [11]
1 | O=C1C=CCC1 [2-cyclopenten-1-one] | induces the synthesis of HSP70 | several hundred | inhibits the synthesis of vesicular stomatitis virus protein | – | – | – | – | – | – | – | – | – | – | – | – | –
2 | N[C@@H](CSC1CC(=O)C(O)C1O)C(=O)O (some centres unmarked) [CD] | – | – | – | inhibition activity of the growth of cancer cells | 89 | 56.2 | 5.3 | Apoptic bodies were produced in the cells | significant macrobiotic effect | same macrobiotic effect | same macrobiotic effect | same macrobiotic effect | same results | – | – | –
3 | N[C@@H](CCC(=O)N[C@@H](CSC1CC(=O)C(O)C1O)C(=O)NCC(=O)O)C(=O)O (some centres unmarked) [GD, 2,3-dihydroxy-4-glutathion-S-yl-cyclopentanone] | – | – | – | inhibition activity of the growth of cancer cells | 47.2 | 5.8 | 2.1 | apoptic bodies were detected; also recorded: Apoptic bodies were produced in the cells | significant macrobiotic effect | same macrobiotic effect | same macrobiotic effect | same macrobiotic effect | same results | 3.7 | – | –
4 | CCCCC[C@H](O)/C=C/[C@H]1C=CC(=O)[C@@H]1CCCCCCC(=O)O [prostaglandin Al] | – | – | – | – | – | – | – | – | – | – | – | – | – | – | synthesis of HSP70 and HS?90 is induced | synthesis of virus protein is inhibited
